Several values for one entry are separate records, joined by “and”; a condition that tells them apart may be missing. Equal values may be shown once. Entries after “also recorded” stand apart in the source; their conditions may differ. Read-outs that look alike come from different tables or passages of the source.
How the values were obtained:
murine NE = biological target: T1, murine NE (Mus musculus, UniProt Q3UP87); settings: cited from earlier work
T1 sequence (Q3UP87 27-265): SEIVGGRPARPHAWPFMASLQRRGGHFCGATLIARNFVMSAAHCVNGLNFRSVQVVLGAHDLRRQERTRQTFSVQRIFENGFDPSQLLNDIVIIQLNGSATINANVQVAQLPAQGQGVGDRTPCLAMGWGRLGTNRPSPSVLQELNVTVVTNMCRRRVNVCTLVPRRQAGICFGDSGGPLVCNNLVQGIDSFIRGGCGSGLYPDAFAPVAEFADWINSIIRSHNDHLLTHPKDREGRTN

murine model of GVHD = format: in vivo
human NE [1] = biological target: T2, human NE (Homo sapiens, UniProt P08246); settings: cited from earlier work
T2 sequence (P08246 30-267): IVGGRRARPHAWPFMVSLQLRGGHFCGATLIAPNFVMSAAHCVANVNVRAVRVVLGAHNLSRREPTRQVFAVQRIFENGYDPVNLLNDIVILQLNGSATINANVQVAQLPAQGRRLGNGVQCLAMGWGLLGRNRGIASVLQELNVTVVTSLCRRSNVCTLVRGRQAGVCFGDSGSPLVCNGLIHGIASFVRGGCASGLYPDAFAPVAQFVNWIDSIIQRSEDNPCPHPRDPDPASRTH

human NE [2] = biological target: T2, human NE; settings: read-out: binding affinity KD; cited from earlier work
NE [3] = biological target: T3, NE (Homo sapiens, UniProt P08246); settings: cell-associated assay; cited from earlier work
[4] = tested on: patients with BOS and chronic GVHD after HCT
NE [5] = biological target: T3, NE; settings: whole-blood assay; cited from earlier work

## Cc1c(-c2ccnn2C)cc(C(=O)NCc2ccc(S(C)(=O)=O)cn2)c(=O)n1-c1cccc(C(F)(F)F)c1 [alvelestat, N-{[5-(methanesulfonyl)pyridin-2-yl]methyl}-6-methyl-5-(1-methyl-1H-pyrazol-5-yl)-2-oxo-1-[3-(trifluoromethyl)phenyl]-1,2-dihydropyridine-3-carboxamide]
Murine NE; NE from other species, including mice
  crossover potency for NE from other species: good crossover potency
Murine NE; murine NE
  pIC50: 6.5
Murine model of GVHD; 20 mg/kg diet vs T2e6, sacrificed Day 4, blinded pathologist, n=5/group, p=0.08, FIG. 4
  histological scoring of GI GVHD: trend toward increased pathology in the T2e6 group; also recorded: markedly less GVHD
Murine model of GVHD; T-cell dose experiment, 20 mg/kg in pre-mixed diet pellets, vs 2x10^6 T cells alone, p<0.001, n=5/group, FIG. 2A, 20 mg/kg
  survival: significantly improved survival; also recorded: better survival
Murine model of GVHD; mice receiving T2e6+20 mg/kg diet, Day 4
  toxicity in skin or liver (histology): no toxicity was observed
Murine model of GVHD; powder mixed with wet food, days -1 to 45, TCDBM+T2e6+20 mg/kg wet food vs TCDBM+T2e6, log-rank p=0.01, FIG. 1B
  survival: significant improvements in survival
Murine model of GVHD; pre-mixed diet pellets, days -1 to 45, TCDBM+T2e6+20 mg/kg diet vs TCDBM+T2e6, log-rank p=0.001, FIG. 1A
  survival: significant improvements in survival
Murine model of GVHD; three doses tested: 20, 50, 200 mg/kg per day, FIG. 1C-1F
  dose-response in improvement in survival, body weight or GVHD score: does not appear to be a dose-response
Human NE [1]
  Ki: 0.0094 µM
  pIC50: 7.9
  reversibility of inhibition: rapidly reversible
Human NE [2]
  Kd: 0.0095 µM
NE [3]
  IC50: 0.048 µM
  pIC50: 7.32
[4]; Lee cGVHD Symptom Scale, C5 = continuation dosing period up to 6 months, individual patients #1-7
  LSS score for lung/breathing at C5: 7 and 3 (2×) and 11 and 2 and 5 and 4
[4]; Lee cGVHD Symptom Scale, individual patients #1-7
  LSS score for lung/breathing at the end of treatment: 8 and 2 and 11 and 3 and 7 and 5 and 1
[4]; NIH chronic GVHD consensus criteria, decline in FEV1 after pneumonia, of 7 patients
  patients with progressive disease: 1 patient
[4]; human, in vivo
  grade 2 adverse event possibly related: ALT or AST elevation: 3 patients
  grade 2 adverse event possibly related: increased creatinine: 3 patients
  grade 2 adverse event possibly related: upper respiratory infection: 3 patients
  grade 3 adverse event possibly related: gastroenteritis and vomiting requiring hospitalization: 1 patient
  grade 3 adverse event possibly related: pneumonia: 1 patient
  patients requiring dose interruptions: Four
  patients requiring dose reduction: 1
  patients who discontinued treatment prior to end of study: Four
[4]; human, in vivo, po, 8 weeks
  maximum dose to which all 7 patients tolerated dose escalation: 240 mg twice daily
[4]; individual patients (patient #1-7)
  End of treatment FEV1 % predicted: 47% and 55% and 40% and 46% and 38% and 41% and 73%
[4]; of 7 patients, 2 during the 6 month treatment period, 2 at end of treatment
  patients with improvement in Lee chronic GVHD symptom scale lung score: 4 patients
[4]; oral, intra-patient escalation 60 to 240 mg twice daily, 7 patients
  maximum tolerated dose (MTD): not reached
[4]; seen in 2 of 7 patients
  improvement in FEV1: 9%
NE [5]
  IC50: 0.044 µM
  pIC50: 7.36

From patent US20220354833A1, “ALVELESTAT FOR USE IN THE TREATMENT OF GRAFT REJECTION, BRONCHIOLITIS OBLITERANS SYNDROME AND GRAFT VERSUS HOST DISEASE” (MEREO BIOPHARMA 4 LIMITED, priority 2019, published 2022)
